Measurements published in patent US20190209501A1, “COMPOSITIONS AND METHODS OF USE OF BETA-HYDROXY-BETA-METHYLBUTYRATE (HMB) […] IN[…]” (Texas Tech University Office of Research Commercialization, priority 2018, published 2019).

Legend:
[1] = Vascular assessments (blood pressure, aortic pulse wave velocity); format: in vivo, human; set-up: Pulse Wave Velocity: unit not given here; details: for Aortic Diastolic Pressure / Aortic Systolic Pressure / Brachial Diastolic Pressure / Brachial Systolic Pressure / Heart Rate / Pulse Wave Velocity: mean ± SE; for Aortic Diastolic Pressure Δ / Aortic Diastolic Pressure Δ (%) / Aortic Systolic Pressure Δ / Aortic Systolic Pressure Δ (%) / Brachial Diastolic Pressure Δ / Brachial Diastolic Pressure Δ (%) / Brachial Systolic Pressure Δ / Brachial Systolic Pressure Δ (%) / Heart Rate Δ / Heart Rate Δ (%) / Pulse Wave Velocity Δ / Pulse Wave Velocity Δ (%): change baseline to W 8; for Aortic Diastolic Pressure ES (d) / Aortic Systolic Pressure ES (d) / Brachial Diastolic Pressure ES (d) / Brachial Systolic Pressure ES (d) / Heart Rate ES (d) / Pulse Wave Velocity ES (d): effect size
Protocol: Brachial blood pressure was measured using an automated cuff-based sphygmomanometer (HEM-907, Omron Healthcare. Kyoto, Japan). From this measurement, mean blood pressure and diastolic blood pressure were used to calibrate ensemble-averaged pressure waveforms measured at the left radial artery using applanation tonometry (SphygmoCor PVx, AtCor Medical, Itasca, Ill., USA). A general transfer function was also used to synthesize a central aortic waveform from the radial artery measurement. Wave separation analysis of the aortic pressure waveform allowed estimation of aortic pulse wave velocity (PWV), an index of arterial stiffness. Each participant remained supine for ≥10 min prior to vascular assessment. Duplicate measurements were obtained and averaged for analysis.

[2] = Countermovement vertical jump (jump height); format: in vivo, human; details: for Jump Height ES (d): Cohen's d baseline vs week 8; for Jump Height Δ (%): change baseline to week 8 relative to baseline; for Jump Height Δ: week 8 minus baseline
Text: For the CMVJ tests, participants completed eight trials while wearing their own footwear. Approximately 30 seconds rest separated each trial. Ground reaction force (GRF) data were obtained during the CMVJ using two force platforms sampled at 1 kHz (OPT464508; Advanced Mechanical Technology, Inc., Watertown, Mass. USA). Participants stood motionless with each foot positioned on a force platform and their hands on their hips before initiating the CMVJ with a countermovement action using a self-selected depth and jumping with maximum effort to achieve the highest vertical displacement possible. No instructions were provided for the landing phase except to land with each foot contacting its respective force platform from take-off and to stop downward motion and return to a motionless standing position. The raw GRF data from the two force platforms were smoothed using a fourth order low pass Butterworth digital filter with a 30 Hz cutoff frequency. The smoothed GRF from the two force platforms was then summed along the vertical axis to obtain the vertical GRF acting at the body center of mass. The start of the CMVJ was defined as the time when bodyweight was reduced by 2.5% (29). Take-off was defined as the time when the summed vertical GRF decreased below a 20 N threshold (30). Jump time was then calculated as the time elapsed between the start of the CMVJ and take-off, expressed in units of seconds. Vertical jump height was calculated using the impulse-momentum relationship and expressed in units of meters.

## CC(C)(O)CC(=O)O [TRFHMB, β-hydroxy-β-methylbutyrate]
[1]; ITT, Baseline
  Aortic Diastolic Pressure: 68 ± 2 mmHg
  Aortic Systolic Pressure: 96 ± 2 mmHg
  Brachial Diastolic Pressure: 67 ± 1 mmHg
  Brachial Systolic Pressure: 112 ± 2 mmHg
  Heart Rate: 62 ± 3 bpm
  Pulse Wave Velocity: 5.5 ± 0.2
[1]; ITT, W 8
  Aortic Diastolic Pressure: 64 ± 2 mmHg
  Aortic Systolic Pressure: 94 ± 2 mmHg
  Brachial Diastolic Pressure: 63 ± 2 mmHg
  Brachial Systolic Pressure: 110 ± 2 mmHg
  Heart Rate: 63 ± 3 bpm
  Pulse Wave Velocity: 5.7 ± 0.1
[1]; ITT
  Aortic Diastolic Pressure Δ: −4 mmHg
  Aortic Diastolic Pressure Δ (%): −6%
  Aortic Systolic Pressure Δ: −2 mmHg
  Aortic Systolic Pressure Δ (%): −2%
  Brachial Diastolic Pressure Δ: −4 mmHg
  Brachial Diastolic Pressure Δ (%): −6%
  Brachial Systolic Pressure Δ: −2 mmHg
  Brachial Systolic Pressure Δ (%): −2%
  Heart Rate Δ: 1 bpm
  Heart Rate Δ (%): 2%
  Pulse Wave Velocity Δ: 0.2
  Pulse Wave Velocity Δ (%): 4%
  Aortic Diastolic Pressure ES (d): −0.64
  Aortic Systolic Pressure ES (d): −0.46
  Brachial Diastolic Pressure ES (d): −0.63
  Brachial Systolic Pressure ES (d): −0.22
  Heart Rate ES (d): 0.07
  Pulse Wave Velocity ES (d): 0.37
[1]; PP, Baseline
  Aortic Diastolic Pressure: 68 ± 2 mmHg
  Aortic Systolic Pressure: 97 ± 2 mmHg
  Brachial Diastolic Pressure: 67 ± 2 mmHg
  Brachial Systolic Pressure: 111 ± 2 mmHg
  Heart Rate: 62 ± 5 bpm
  Pulse Wave Velocity: 5.5 ± 0.3
[1]; PP, W 8
  Aortic Diastolic Pressure: 65 ± 2 mmHg
  Aortic Systolic Pressure: 95 ± 2 mmHg
  Brachial Diastolic Pressure: 64 ± 2 mmHg
  Brachial Systolic Pressure: 112 ± 2 mmHg
  Heart Rate: 62 ± 5 bpm
  Pulse Wave Velocity: 5.8 ± 0.2
[1]; PP
  Aortic Diastolic Pressure Δ: −3 mmHg
  Aortic Diastolic Pressure Δ (%): −4%
  Aortic Systolic Pressure Δ: −2 mmHg
  Aortic Systolic Pressure Δ (%): −2%
  Brachial Diastolic Pressure Δ: −3 mmHg
  Brachial Diastolic Pressure Δ (%): −4%
  Brachial Systolic Pressure Δ: 1 mmHg
  Brachial Systolic Pressure Δ (%): 1%
  Heart Rate Δ: 0 bpm
  Heart Rate Δ (%): 0%
  Pulse Wave Velocity Δ: 0.3
  Pulse Wave Velocity Δ (%): 5%
  Aortic Diastolic Pressure ES (d): −0.53
  Aortic Systolic Pressure ES (d): −0.20
  Brachial Diastolic Pressure ES (d): −0.49
  Brachial Systolic Pressure ES (d): 0.13
  Heart Rate ES (d): 0.06
  Pulse Wave Velocity ES (d): 0.46
[2]; ITT analysis
  Jump Height ES (d): 0.65
  Jump Height Δ (%): 29%
  Jump Height Δ: 0.06
[2]; ITT analysis, week 8, mean ± SE, method b87 expresses jump height in meters
  Jump Height W 8: 0.27 ± 0.03
[2]; PP analysis
  Jump Height ES (d): 0.21
  Jump Height Δ (%): 9%
  Jump Height Δ: 0.02
